Our source for the Ki and IC50 values is patent EP2150534B1, “ISOQUINOLINONE DERIVATIVES AS NK3 ANTAGONISTS” (H. Lundbeck A/S, priority 2007, dated 2008).

In assay [1] the target is T1, human NK3 receptor (Homo sapiens, UniProt P29371).
T1 construct: expressed in transfected cells; membranes prepared from them
T1 sequence (P29371 1-465): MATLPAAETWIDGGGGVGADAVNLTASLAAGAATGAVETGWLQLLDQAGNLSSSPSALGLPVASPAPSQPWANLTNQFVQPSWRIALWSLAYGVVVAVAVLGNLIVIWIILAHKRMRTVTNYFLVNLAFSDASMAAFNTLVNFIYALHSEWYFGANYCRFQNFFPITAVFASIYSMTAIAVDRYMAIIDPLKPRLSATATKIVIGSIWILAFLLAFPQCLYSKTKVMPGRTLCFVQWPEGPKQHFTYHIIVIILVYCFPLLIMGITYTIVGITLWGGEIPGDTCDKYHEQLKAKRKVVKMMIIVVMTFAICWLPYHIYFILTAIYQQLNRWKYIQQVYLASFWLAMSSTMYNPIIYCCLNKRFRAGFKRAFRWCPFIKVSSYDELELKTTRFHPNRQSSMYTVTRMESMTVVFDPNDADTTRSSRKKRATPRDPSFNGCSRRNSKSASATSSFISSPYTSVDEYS
Nature of the assay: NK3 receptor binding assay (SPA-based competition binding with 125I-NKB, membranes of BHK cells). As to the method:
Membranepreparation: BHK cells stably expressing the human NK3 receptor were seeded in harvesting plates in Dulbeccos MEM containing GlutaMax (862 mg/l), 1 mM sodium pyruvate, 10% fetal calf serum, 1% Pen/Strep, I mg/ml G418 and were grown at 34 °C in a humidified atmosphere containing 10% CO2. To increase receptor expression, 10 µM trichotatin A was added to the media 24 hours before harvest of the cells at a confluency of app 90%. Prior to the harvesting, the cells were washed twice with PBS without Mg^2+ og Ca^2+ and subsequently scrapped of in 10 ml PBS pr harvesting plate. The cells suspension were centrifuged at 1500xG in three minutes before resuspension in 15 mM Tris-HCl pH 7,5 buffer containing 2 mM MgCl2; 0,3 mM EDTA and 1 mM EGTA (buffer A). The cell suspention was homogenised and subsequently centrifuged at 40000xG in 30 minutes. The membrane-pellet was resuspended in buffer A containing 250 mM sucrose, alliquoted and stored at - 80°C.
Affinity assay description: The assay was performed as a SPA-based competition-binding assay in a 50 mM Tris pH 7.4 assay buffer containing 120 mM NaCl, 3 mM MnCl2, 40 µg/ml bacitracin, 2 µg/ml Chymostatin, 1 µg/ml Phosphoramidon and 4 µg/ml Leupeptin. App 0.02 nM ^125I-NKB was mixed with test compounds before addition of 4 µg of the homogenised NK3 membrane preparation and 0,025 mg SPA beads in a total volume of 60 µl. The assay plate was subsequently under agitation incubated for 90 min at RT. The plate was centrifugated 10 minutes at 500xG and counted in a topcounter 5 minuttes pr well.
The non-specific binding constituted app 5 % of the total binding.
Data points were expressed in percent of the specific binding of ^125I-NKB and the IC50 values (concentration causing 50 percent inhibition of ^125I-NKB specific binding) were determined by non-linear regression analysis using a sigmoidal variable slope curve fitting. The dissociation constant (Ki) were calculated from the Cheng Prusoff equation (Ki = IG50/(1+(L/KD))), where the concentration of free radioligand L is approximated to the concentration of added ^125I-NKB in the assay (app 0,02 nM).
The KD of ^125I-NKB was determined to be 0,7 nM from three independent saturation assays each performed with duplicate determinations. Bmax was app 2 pmol/mg.

In assay [2] the target is T1, human NK3 receptor. Nature of the assay: NK3 receptor efficacy and potency assay (FLIPR Calcium 4 assay, BHK cells; agonist and antagonist mode versus NKB). The assay is classed as cell-based. The conditions noted are these: read-out: Potency cIC50. On the procedure:
BHK cells stably expressing the human NK3 receptor were seeded in 100 µl media in black walled clear-base 96-wells plates (Costar) aiming at a confluency of 95-100% at the day of assay. The assay was performed according to the FLIPR Calcium 4 Assay kit (Molecular Devices). At the day of the assay, the media was removed and the cells were washed once with the HBSS buffer (Hanks BSS buffer, pH 7,4 containing 20 mM Hepes) before 100 µl of a solution of the calcium assay reagent dissolved in the HBSS buffer containing 2,5 mM probinicid was added to the cells. The plates were incubated for 60 min at 34°C, 10% CO2 before use in the FLIPR for examination of fluorescence.
For efficacy and potency evaluation of compounds, these were diluted in HBSS buffer prior to test. For test of agonist activity, 25 µl of the diluted compound solution was added and the plate was analyzed for 5 minutes in the FLIPR. […] The plates were subsequently analyzed for 5 minutes before the assay was terminated. The maximal increase in fluorescence over background following each ligand addition was determined.

Where [3] appears, read: Ki for the NK3 receptor, table of Example 9, 125I-NKB competition binding, read-out: Ki.
The mark [4] stands for this setting: table of Example 10, affinity obtained as described in Example 9, read-out: Affinity Ki.

Read-outs that look alike come from different tables or passages of the source.

As for `CC[C@H](NC(=O)c1c(CN(C)C)n(-c2ccccc2)c(=O)c2ccccc12)c1ccccc1` [Example 2a, 3-Dimethylarrtinomethyl-1-oxo-2 phenyl-1,2-dihydro-isoquinoline-4-carboxylic acid ((S)-1-phenyl-propyl)-amide], the Ki on human NK3 receptor [1] (setting [3]) worked out at 0.18 µM.

With `O=C(N[C@H](c1cccc(F)c1)C1CC1)c1c(CN2CCCC2=O)n(-c2ccccc2)c(=O)c2c(Cl)cccc12` [Example 3d, 8-Chloro-1-oxo-3-(2-oxo-pyrrolidin-1-ylmethyl)-2-phenyl-1,2-dihydro-isoquinoline-4-carboxylic acid [(S)-cyclopropyl-(3-fluoro-phenyl)-methyl]-amide], the IC50 on human NK3 receptor [2] amounted to 0.046 µM. Further, the Ki at human NK3 receptor [1] (setting [4]) was found to be 0.016 µM.

`COc1cccc(C2(O)CCN(Cc3c(C(=O)NC(c4cccc(F)c4)C4CC4)c4ccccc4c(=O)n3-c3ccccc3)CC2)c1` (stereo not drawn) [Example 2hz, 3-[4-Hydroxy-4-(3-methoxy-phenyl)-piperidin-1-ylmethyl]-1-oxo-2-phenyl-1,2-dihydro-isoquinoline-4-carboxylic acid [cyclopropyl-(3-fluoro-phenyl)-methyl]-amide]: the IC50 at human NK3 receptor [2] worked out at 0.035 µM. Besides, the Ki at human NK3 receptor [1] (setting [3]) is 0.003 µM; on human NK3 receptor [1] (setting [4]) it was 0.0045 µM.

Take `CC[C@H](NC(=O)c1c(CN2CCN(C(C)(C)C)CC2)n(-c2ccccc2)c(=O)c2c(Cl)cccc12)c1ccccc1` [Example 2ko, 3-(4-tert-Butyl-piperazin-1-ylmethyl)-8-chloro-1-oxo-2-phenyl-1,2-dihydro-isoquinoline-4-carboxylic acid ((S)-1-phenyl-propyl)-amide]: the IC50 at human NK3 receptor [2] amounted to 0.0056 µM. For the same compound, the Ki at human NK3 receptor [1] (setting [4]) was determined as 0.011 µM.

As for `O=C(NC(c1cccc(F)c1)C1CC1)c1c(CN2CCN(Cc3ccncc3)CC2)n(-c2ccccc2)c(=O)c2ccccc12` (stereo not drawn) [Example 2hw, 1-Oxo-2-phenyl-3-(4-pyridin4-methyl-piperazin-1-ylmethyl)-1,2-dihydro-isoquinoline-4-carboxylic acid [cyclopropyl-(3-fluoro-phenyl)-methyl]-amide], the IC50 at human NK3 receptor [2] is 0.063 µM. Moreover, the Ki at human NK3 receptor [1] (setting [4]) turned out to be 0.0082 µM.

With `CC[C@H](NC(=O)c1c(CN2CCCCCC2)n(-c2ccccc2)c(=O)c2ccccc12)c1ccccc1` [Example 2ah, 3-Azepan-1-ylmethyl-1-oxo-2-phenyl-1,2-dihydro-isoquinoline-4-carboxylic acid ((S)-1-phenyl-propyl)-amide], the IC50 on human NK3 receptor [2] was determined as 0.36 µM. Further, the Ki at human NK3 receptor [1] (setting [4]) amounted to 0.29 µM.

As for `CC[C@H](NC(=O)c1c(CN2CCC(CCN3CCOCC3)CC2)n(-c2ccccc2)c(=O)c2ccccc12)c1ccccc1` [Example 2cw, 3-[4-(2-Morpholin-4-yl-ethyl)-piperidin-1-ylmethyl]-1-oxo-2-phenyl-1,2-dihydro-isoquinoline-4-carboxylic acid ((S)-1-phenyl-propyl)-amide], at human NK3 receptor [2], the IC50 was 0.045 µM. The Ki on human NK3 receptor [1] (setting [4]) stood at 0.0084 µM.

As to `CC[C@H](NC(=O)c1c(CN2CCC(O)(c3cccc(OC)c3)CC2)n(-c2ccccc2)c(=O)c2c(Cl)cccc12)c1ccccc1` [Example 2kn, 8-Chloro-3-[4-hydroxy-4-(3-methoxy-phenyl)-piperidin-1-ylmethyl]-1-oxo-2-phenyl-1,2-dihydro-isoquinoline-4-carboxylic acid ((S)-1-phenyl-propyl)-amide], the IC50 at human NK3 receptor [2] amounted to 0.041 µM. Besides, the inhibition constant Ki at human NK3 receptor [1] (setting [4]) amounted to 0.0087 µM.

With `CC[C@H](NC(=O)c1c(CN2CCN(C(C)(C)C)CC2)n(-c2ccccc2)c(=O)c2c(F)cccc12)c1ccccc1` [Example 2lj, 3-(4-tert-Butyl-piperazin-1-ylmethyl)-8-fluoro-1-oxo-2-phenyl-1,2-dihydro-isoquinoline-4-carboxylic acid ((S)-1-phenyl-propyl)-amide], at human NK3 receptor [2], the IC50 was determined as 0.016 µM. Also, at human NK3 receptor [1] (setting [4]), the inhibition constant Ki turned out to be 0.018 µM.

With `CC[C@H](NC(=O)c1c(CN2CC[C@H](O)C2)n(-c2ccccc2)c(=O)c2ccccc12)c1ccccc1` [Example 2es, 3-((S)-3-Hydroxy-pyrrolidin-1-ylmethyl)-1-oxo-2-phenyl-1,2-dihydro-isoquinoline-4-carboxylic acid ((S)-1-phenyl-propyl)-amide], the IC50 on human NK3 receptor [2] is 0.24 µM. In addition, the inhibition constant (Ki) on human NK3 receptor [1] (setting [4]) came to 0.14 µM.

Consider `CC[C@H](NC(=O)c1c(CN2CCC3(CC2)OCCO3)n(-c2ccccc2)c(=O)c2ccccc12)c1ccccc1` [Example 2u, 3-(1,4-Dioxa-8-aza-spiro[4.5]dec-8-ylmethyl)-1-oxo-2-phenyl-1,2-dihydro-isoquinoline-4-carboxylic acid ((S)-1-phenyl-propyl)-amide], for which the IC50 on human NK3 receptor [2] is 0.096 µM. The Ki at human NK3 receptor [1] (setting [4]) was 0.09 µM.

Consider `O=C(NC(c1cccc(F)c1)C1CC1)c1c(CN2CCN(CCN3CCOCC3)CC2)n(-c2ccccc2)c(=O)c2ccccc12` (stereo not drawn) [Example 2hs], for which the IC50 at human NK3 receptor [2] turned out to be 0.021 µM. In addition, the Ki on human NK3 receptor [1] (setting [3]) was 0.0053 µM; at human NK3 receptor [1] (setting [4]) it was 0.0075 µM.

On to `CC[C@H](NC(=O)c1c(CN2CCCC2=O)n(-c2ccccc2)c(=O)c2ccccc12)c1ccccc1` [Example 3a, 1-Oxo-3-(2-oxo-pyrrolidin-1-ylmethyl)-2-phenyl-1,2-dihydro-isoquiline-4-carboxylic acid ((S)-1-phenyl-propyl)-amide], for which the IC50 on human NK3 receptor [2] was 0.27 µM. Besides, the inhibition constant (Ki) at human NK3 receptor [1] (setting [3]) worked out at 0.072 µM; at human NK3 receptor [1] (setting [4]), 0.088 µM.

In the case of `CC[C@H](NC(=O)c1c(CN2CCC2)n(-c2ccccc2)c(=O)c2ccccc12)c1ccccc1` [Example 2ey, 3-Azetidin-1-ylmethyl-1-oxo-2-phenyl-1,2-dihydro-isoquinoline-4-carboxylic acid ((S)-1-phenyl-propyl)-amide], the IC50 on human NK3 receptor [2] is 0.48 µM. Also, at human NK3 receptor [1] (setting [4]), the Ki is 0.24 µM.

On to `Cc1c(C(=O)N[C@H](c2cccc(F)c2)C2CC2)c2cccc(Cl)c2c(=O)n1-c1ccccc1` [Example 1t, 8-Chloro-3-methyl-1-oxo-2-phenyl-1,2-dihydro-isoquinoline-4-carboxylic acid [(S)-cyclopropyl-(3-fluoro-phenyl)-methyl]-amide], for which the IC50 on human NK3 receptor [2] came out at 0.044 µM. On human NK3 receptor [1] (setting [4]), the inhibition constant (Ki) came out at 0.027 µM.

`CC(=O)N(C)C1(c2ccccc2)CCN(Cc2c(C(=O)NC(c3cccc(F)c3)C3CC3)c3ccccc3c(=O)n2-c2ccccc2)CC1` (stereo not drawn) [Example 2ia, 3-[4-(Acetyl-methyl-amino)-4-phenyl-piperidin-1-ylmethyl]-1-oxo-2-phenyl-1,2-dihydro-isoquinoline-4-carboxylic acid [cyclopropyl-(3-fluoro-phenyl)-methyl]-amide]: the IC50 on human NK3 receptor [2] turned out to be 0.1 µM. In addition, on human NK3 receptor [1] (setting [4]), the Ki worked out at 0.012 µM.

`Cc1c(C(=O)NN(c2ccccc2)c2ccccc2)c2ccccc2c(=O)n1-c1ccccc1` [Example 5a, 3-Methyl-1-oxo-2 phenyl-1,2-dihydro-isoquinoline-4-carboxylic acid N',N'-diphenyl-hydrazide]: the Ki on human NK3 receptor [1] (setting [3]) came out at 0.055 µM.

Turning to `Cc1c(C(=O)N[C@@H](c2cccc(F)c2)C2CC2)c2cccc(Cl)c2c(=O)n1-c1ccccc1` [Example 1bl, 8-Chloro-3-methyl-1-oxo-2-phenyl-1,2-dihydro-isoquinoline-4-carboylic acid [(R)-cyclopropyl-(3-fluoro-phenyl)-methyl]-amide], the inhibitory constant (Ki) at human NK3 receptor [1] (setting [4]) is 0.47 µM.
